32 compounds from ChEMBL document CHEMBL1141624, “Discovery of small molecule benzimidazole antagonists of the chemokine receptor CXCR3” (Bioorg Med Chem Lett, 2008) can be followed below.

Series [1] concerns the target T1, C-X-C chemokine receptor type 3 (Homo sapiens, UniProt P49682).
T1 sequence (P49682 whole entry): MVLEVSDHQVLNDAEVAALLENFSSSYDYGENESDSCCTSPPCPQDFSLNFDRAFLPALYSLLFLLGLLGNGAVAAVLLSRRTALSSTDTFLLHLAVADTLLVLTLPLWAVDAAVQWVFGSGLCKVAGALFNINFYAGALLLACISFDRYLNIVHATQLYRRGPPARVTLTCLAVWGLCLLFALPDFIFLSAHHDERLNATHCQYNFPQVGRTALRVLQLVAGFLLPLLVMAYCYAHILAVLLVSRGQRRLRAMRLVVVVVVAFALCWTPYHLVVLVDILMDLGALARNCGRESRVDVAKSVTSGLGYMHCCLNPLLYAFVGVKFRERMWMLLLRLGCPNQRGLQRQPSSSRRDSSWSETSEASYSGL
As to the kind of experiment: Displacement of [125]CXCL10 from human CXCR3 expressed in CHO cells. The format is cell-based.

Series [2] deals with T1, C-X-C chemokine receptor type 3. The experiment in a line: Antagonist activity at human CXCR3 expressed in CHO cells by FLIPR-based calcium mobilization assay. It is filed as functional, cell-based.
Series [3] can be described thus: Half life in SJL mouse at 20 mg/kg, po. It is filed as ADME, organism-based. Also noted: dose 20 mg/kg, route oral. The following applies: in vivo.
Series [4] in a line: Clearance in SJL mouse at 10 mg/kg, po and 5 mg/kg, iv. The format is ADME, organism-based. Conditions: in vivo.
Series [5] can be described thus: Aqueous solubility of the compound. It is filed as physicochemical. Conditions: buffer.
The test system of another series is Liver microsomes. As to the kind of experiment: Stability in rat liver microsome. It is filed as ADME.
Series [6] in a line: Protein binding in rat plasma. It is filed as ADME, cell-free. The following applies: read-out: PPB (converted).
The nature of series [7]: Bioavailability in SJL mouse at 20 mg/kg, po. The format is ADME, organism-based. Conditions: in vivo.

Converted amounts (≈) assume the structure as drawn.

On to `CC(=O)c1nc2ccccc2n1CC(=O)c1ccc(Cl)cc1`, for which, in series [1], the IC50 (usually the concentration that gives 50% inhibition) is 8 µM.
Same read-out and setting: the result for `Cn1c(=N)n(CC(=O)c2ccc(Cl)cc2)c2cccc(C(F)(F)F)c21` reads 0.7 µM; that for `CC(=O)c1nc2ccccc2n1CC(=O)c1ccccc1`, more than 100 µM.
Turning to `COCC/N=c1/n(C)c2ccccc2n1CC(=O)c1ccc(Br)cc1`, in series [1], the IC50 stood at 1 µM.
Consider `CCc1cccc2c1n(C)c(=N)n2CC(=O)c1ccc(Cl)cc1`, for which the IC50 in series [1] came out at 0.03 µM; in series [2], 0.07 µM.
Turning to `COc1ccc2nc(C(C)=O)n(CC(=O)c3ccc(Br)cc3)c2c1`, the IC50 in series [1] is more than 50 µM.
Regarding `Cn1c(=N)n(CC(=O)c2ccc(Cl)c(Cl)c2)c2ccccc21`, the IC50 in series [1] was determined as 4 µM.
Still for that read-out and setting: the result for `CC(O)c1nc2ccccc2n1CC(=O)c1ccc([N+](=O)[O-])cc1` (stereo not given) reads 20 µM.
On the same count and under the same terms, the result for `CC(=O)/N=c1/n(C)c2ccccc2n1CC(=O)c1ccc([N+](=O)[O-])cc1` reads 50 µM.
In the case of `Cc1ccc2c(c1)n(C)c(=N)n2CC(=O)c1ccc(Cl)cc1`, the IC50 turned out to be 1 µM in series [1] and 5 µM in series [2].
Compound `Cc1ccc2c(c1)n(CC(=O)c1ccc(Cl)cc1)c(=N)n2C` yielded a concentration for half-maximal inhibition (IC50) in series [1] of 8 µM.
`COc1cccc2c1nc(C(C)=O)n2CC(=O)c1ccc(Br)cc1`: the IC50 in series [1] came out at 3 µM.
On the same count and under the same terms, for `Cn1c(=N)n(CCc2ccc(Br)cc2)c2ccccc21` the value was 11 µM; for `C[S+]([O-])c1nc2ccccc2n1CC(=O)c1ccc([N+](=O)[O-])cc1` (stereo not given), 11 µM.
Still for that read-out and setting: for `Cn1c(=N)n(CC(=O)c2cccc(Cl)c2)c2ccccc21` the value was 16 µM.
For `Cc1cccc2c1n(C)c(=N)n2CC(=O)c1ccc(Cl)cc1`, the half-life – broadly, the time needed for the level to fall by half in the phase considered – in series [3] is 4.9 h. In addition, in series [4], the clearance is 95 mL/min/kg. In addition, the concentration in solution in series [5] (solubility) came to 79 µM (≈ 24.8 µg/mL). The results for the IC50 in series [1] and in series [2] were 0.1 µM and 0.08 µM, respectively. Further, the Stability in the series with Liver microsomes is recorded as 49%. Moreover, the fraction unbound in series [6] was 0.15. The bioavailability – broadly, dose-corrected exposure relative to a reference, in per cent – in series [7] was 57%.
Regarding `Cn1c(=N)n(CC(=O)c2ccc(Br)cc2)c2ccccc21`, in series [1], the IC50 came out at 0.8 µM.
Compound `COc1ccc2c(c1)nc(C(C)=O)n2CC(=O)c1ccc(Br)cc1` returned an IC50 in series [1] of more than 50 µM.
With `CC(=O)c1nc2ccccc2n1CC(=O)c1ccc(Br)cc1`, the IC50 in series [1] worked out at 2 µM.
Still for that read-out and setting: for `CC(=O)c1nc2ccccc2n1CC(=O)c1ccc(C#N)cc1` the value was more than 100 µM.
The same measure, in the same setting: the result for `C/N=c1/n(C)c2ccccc2n1CC(=O)c1ccc(Cl)cc1` reads 0.8 µM.
Consider `COc1cccc2c1n(C)c(=N)n2CC(=O)c1ccc(Br)cc1`, for which, in series [1], the IC50 worked out at 0.8 µM.
Still for that read-out and setting: for `Cn1c(=N)n(C[S+]([O-])c2ccc(Cl)cc2)c2ccccc21` (stereo not given) the value was 3 µM; for `CC(=O)c1nc2ccc(-c3ccccc3)cc2n1CC(=O)c1ccc(Br)cc1`, more than 50 µM; for `Cn1c(=N)n(CC(O)c2ccc(Br)cc2)c2ccccc21` (stereo not given), 40 µM.
On the same count and under the same terms, the result for `Cn1c(=N)n(CC(=O)c2ccccc2Cl)c2ccccc21` reads 22 µM; that for `Cn1c(=N)n(CCCC(=O)c2ccc(Br)cc2)c2ccccc21`, 6 µM.
For the compound `Cn1c(=N)n(CC(=O)c2ccc(Cl)cc2)c2ccccc21`, the solubility (commonly the concentration that dissolves in the medium under given conditions) in series [5] was 84 µM (≈ 25.2 µg/mL). The half-maximal inhibitory concentration (IC50) was 0.8 µM in series [1] and 9 µM in series [2].
`CC(=O)c1nc2ccccc2n1CC(=O)c1ccc([N+](=O)[O-])cc1`: in series [5], the concentration in solution (solubility) came to 4.5 µM (≈ 1.45 µg/mL). Moreover, in series [1], the IC50 stood at 3 µM.
With `CCCc1cccc2c1n(C)c(=N)n2CC(=O)c1ccc(Cl)cc1`, the IC50 in series [1] turned out to be 0.5 µM; in series [2], 0.4 µM.
In the case of `CC(=O)c1nc2cc(-c3ccccc3)ccc2n1CC(=O)c1ccc(Br)cc1`, the IC50 in series [1] was more than 50 µM.
Same read-out and setting: for `Cn1c(=N)n(CC(=O)c2ccc(Cl)cc2)c2cccc(Cl)c21` the value was 0.3 µM.
